Laboratory results from patent US20080207641A1 (Synta Pharmaceuticals Corp., priority 2006, published 2008).
Converted amounts (≈) assume the structure as drawn. Where two headings read alike, the source gives them in different places.

Experiments:
IL-2 production = assay: Inhibition of IL-2 production in PHA-activated Jurkat cells (ELISA); assay type: cell-based; conditions: Homo sapiens, 20 h, PHA 2.5 μg/mL, 20 hours at 37° C., IL-2 ELISA
Procedure: Jurkat cells were placed in a 96 well plate (0.5 million cells per well in 1% FBS medium) then a test compound of this invention was added at different concentrations. After 10 minutes, the cells were activated with PHA (final concentration 2.5 μg/mL) and incubated for 20 hours at 37° C. under CO2. The final volume was 200 μL. Following incubation, the cells were centrifuged and the supernatants collected and stored at −70° C. prior to assaying for IL-2 production. A commercial ELISA kit (IL-2 Eli-pair, Diaclone Research, Besancon, France) was used to detect production of IL-2, from which dose response curves were obtained. The IC50 value was calculated as the concentration at which 50% of maximum IL-2 production after stimulation was inhibited versus a non-stimulation control.

[1] = Solubility in simulated gastric fluids; assay type: physicochemical
Excerpt: Solubility in Simulated Gastric Fluids

| SMILES | IC50 (IL-2 production) | solubility ([1]; simulated gastric fluid) | solubility [1] |
| --- | --- | --- | --- |
| Cc1cncnc1C(=O)Nc1ccc(C2=C(C=O)CCN(c3nccs3)C2)cc1 [Compound 1, N-(4-(4-formyl-1-(thiazol-2-yl)-1,2,5,6-tetrahydropyridin-3-yl)phenyl)-5-methylpyrimidine-4-carboxamide] | 75 to 150 nM | – | – |
| CC1=C(c2cnc(NC(=O)c3c(F)cccc3F)cn2)CN(c2nnn(C)n2)CC1 [Compound 2, 2,6-difluoro-N-(5-(4-methyl-1-(2-methyl-2H-tetrazol-5-yl)-1,2,5,6-tetrahydropyridin-3-yl)pyrazin-2-yl)benzamide] | 35 to 75 nM | 50 µM (≈ 20.6 µg/mL) | – |
| CC1=C(c2cnc(NC(=O)c3c(F)cccc3F)cn2)CN(c2nnnn2C)CC1 [Compound 3, 2,6-difluoro-N-(5-(4-methyl-1-(1-methyl-1H-tetrazol-5-yl)-1,2,5,6-tetrahydropyridin-3-yl)pyrazin-2-yl)benzamide] | > 1000 nM | – | – |
| CC1=C(c2cnc(NC(=O)c3ccncc3F)cn2)CN(c2nccs2)CC1 [Compound 4, 3-fluoro-N-(5-(4-methyl-1-(thiazol-2-yl)-1,2,5,6-tetrahydropyridin-3-yl)pyrazin-2-yl)isonicotinamide] | ≤ 35 nM | 50 µM (≈ 19.8 µg/mL) | – |
| CC1=C(c2ccc(NCc3c(F)cccc3F)cc2)CN(c2nccs2)CC1 [Compound 5, N-(2,6-difluorobenzyl)-4-(4-methyl-1-(thiazol-2-yl)-1,2,5,6-tetrahydropyridin-3-yl)aniline] | ≤ 35 nM | 50 µM (≈ 19.9 µg/mL) | – |
| CC1=C(c2ccc(NC(=O)c3c(F)cccc3F)nc2)CN(c2nnn(C)n2)CC1 [Compound 6, 2,6-difluoro-N-(5-(4-methyl-1-(2-methyl-2H-tetrazol-5-yl)-1,2,5,6-tetrahydropyridin-3-yl)pyridin-2-yl)benzamide] | ≤ 35 nM | 50 µM (≈ 20.6 µg/mL) | – |
| CC1=C(c2ccc(NCc3c(F)cccc3F)nc2)CN(c2nccs2)CC1.Cl.Cl [Compound 7, N-(2,6-difluorobenzyl)-5-(4-methyl-1-(thiazol-2-yl)-1,2,5,6-tetrahydropyridin-3-yl)pyridin-2-amine dihydrochloride] | 35 to 75 nM | 100 µM | – |
| CC1=C(c2ccc(NC(=O)c3c(F)cccc3C(F)(F)F)cc2)CN(c2nccs2)CC1 [Compound 8, 2-fluoro-N-(4-(4-methyl-1-(thiazol-2-yl)-1,2,5,6-tetrahydropyridin-3-yl)phenyl)-6-(trifluoromethyl)benzamide] | 75 to 150 nM | – | – |
| CC1=C(c2ccc(NC(=O)c3ccccc3C(F)(F)F)cc2)CN(c2nccs2)CC1 [Compound 9, N-(4-(4-methyl-1-(thiazol-2-yl)-1,2,5,6-tetrahydropyridin-3-yl)phenyl)-2-(trifluoromethyl)benzamide] | 35 to 75 nM | – | – |
| CC1=C(c2ccc(NC(=O)c3c(Cl)cccc3Cl)cc2)CN(c2nccs2)CC1 [Compound 10, 2,6-dichloro-N-(4-(4-methyl-1-(thiazol-2-yl)-1,2,5,6-tetrahydropyridin-3-yl)phenyl)benzamide] | 75 to 150 nM | 50 µM (≈ 22.2 µg/mL) | – |
| CC1=C(c2ccc(NC(=O)c3c(F)cccc3F)cn2)CN(c2nccs2)CC1 [Compound 11, 2,6-difluoro-N-(6-(4-methyl-1-(thiazol-2-yl)-1,2,5,6-tetrahydropyridin-3-yl)pyridin-3-yl)benzamide] | 75 to 150 nM | 100 µM (≈ 41.2 µg/mL) | – |
| CC1=C(c2ccc(NC(=O)c3ccccc3F)cc2)CN(c2nccs2)CC1 [Compound 12, 2-fluoro-N-(4-(4-methyl-1-(thiazol-2-yl)-1,2,5,6-tetrahydropyridin-3-yl)phenyl)benzamide] | ≤ 35 nM | 50 µM (≈ 19.7 µg/mL) | – |
| CC1=C(c2ccc(NC(=O)c3c(O)cccc3F)cc2)CN(c2nccs2)CC1 [Compound 13, 2-fluoro-6-hydroxy-N-(4-(4-methyl-1-(thiazol-2-yl)-1,2,5,6-tetrahydropyridin-3-yl)phenyl)benzamide] | 150 to 1000 nM | 50 µM (≈ 20.5 µg/mL) | – |
| CSc1ncccc1C(=O)Nc1ccc(C2=C(C)CCN(c3nccs3)C2)cc1 [Compound 14, N-(4-(4-methyl-1-(thiazol-2-yl)-1,2,5,6-tetrahydropyridin-3-yl)phenyl)-2-(methylthio)nicotinamide] | 150 to 1000 nM | – | – |
| CCC(Cl)C(=O)Nc1ccc(C2=C(C)CCN(c3nccs3)C2)cc1 (centres unmarked) [Compound 15, 2-chloro-N-(4-(4-methyl-1-(thiazol-2-yl)-1,2,5,6-tetrahydropyridin-3-yl)phenyl)butanamide] | ≤ 35 nM | – | 150 µM (≈ 56.4 µg/mL) |
| CC1=C(c2ccc(NC(=O)c3ccc(F)cc3F)cc2)CN(c2nccs2)CC1 [Compound 16, 2,4-difluoro-N-(4-(4-methyl-1-(thiazol-2-yl)-1,2,5,6-tetrahydropyridin-3-yl)phenyl)benzamide] | ≤ 35 nM | – | 150 µM (≈ 61.7 µg/mL) |
| CC1=C(c2ccc(NC(=O)C3c4ccccc4-c4ccccc43)cc2)CN(c2nccs2)CC1 [Compound 17, N-(4-(4-methyl-1-(thiazol-2-yl)-1,2,5,6-tetrahydropyridin-3-yl)phenyl)-9H-fluorene-9-carboxamide] | 150 to 1000 nM | – | – |

| SMILES | IC50 (IL-2 production) | solubility ([1]; simulated gastric fluid) | solubility [1] |
| --- | --- | --- | --- |
| O=C(Nc1ccc(-c2cc(-c3nccs3)ccc2Cl)cc1)c1c(O)cccc1F [Compound 18, N-(2′-chloro-5′-(thiazol-2-yl)biphenyl-4-yl)-2-fluoro-6-hydroxybenzamide] | 75 to 150 nM | – | – |
| CC1=C(c2ccc(NC(=O)c3ccc(F)cc3F)cc2)CN(c2nccs2)CC1.Cl [Compound 19, 2,4-difluoro-N-(4-(4-methyl-1-(thiazol-2-yl)-1,2,5,6-tetrahydropyridin-3-yl)phenyl)benzamide hydrochloride] | – | – | 150 µM |
| CC1=C(c2cnc(NC(=O)c3c(F)cccc3Cl)cn2)CN(c2nccs2)CC1 [Compound 20, 2-chloro-6-fluoro-N-(5-(4-methyl-1-(thiazol-2-yl)-1,2,5,6-tetrahydropyridin-3-yl)pyrazin-2-yl)benzamide] | ≤ 35 nM | – | 150 µM (≈ 64.5 µg/mL) |
| CC1=C(c2ccc(NC(=O)c3ccc(F)cc3F)nc2)CN(c2nnn(C)n2)CC1 [Compound 21, 2,4-difluoro-N-(5-(4-methyl-1-(2-methyl-2H-tetrazol-5-yl)-1,2,5,6-tetrahydropyridin-3-yl)pyridin-2-yl)benzamide] | – | – | 150 µM (≈ 61.7 µg/mL) |
| CC1=C(c2ccc(NC(=O)c3c(F)cccc3F)nc2)CN(c2nccn2C)CC1 [Compound 22, 2,6-difluoro-N-(5-(4-methyl-1-(1-methyl-1H-imidazol-2-yl)-1,2,5,6-tetrahydropyridin-3-yl)pyridin-2-yl)benzamide] | > 1000 nM | – | – |
| CC1=C(c2ccc(NC(=O)c3c(F)cccc3Cl)nc2)CN(c2nnn(C)n2)CC1 [Compound 23, 2-chloro-6-fluoro-N-(5-(4-methyl-1-(2-methyl-2H-tetrazol-5-yl)-1,2,5,6-tetrahydropyridin-3-yl)pyridin-2-yl)benzamide] | > 1000 nM | 25 µM (≈ 10.7 µg/mL) | – |
| CC1=C(c2cnc(NC(=O)c3ccc(F)cc3F)cn2)CN(c2nnn(C)n2)CC1 [Compound 24, 2,4-difluoro-N-(5-(4-methyl-1-(2-methyl-2H-tetrazol-5-yl)-1,2,5,6-tetrahydropyridin-3-yl)pyrazin-2-yl)benzamide] | 75 to 150 nM | 50 µM (≈ 20.6 µg/mL) | – |
| Cn1nnc(N2CCC(Cl)=C(c3ccc(NC(=O)c4c(F)cccc4F)nc3)C2)n1 [Compound 25, N-(5-(4-chloro-1-(2-methyl-2H-tetrazol-5-yl)-1,2,5,6-tetrahydropyridin-3-yl)pyridin-2-yl)-2,6-difluorobenzamide] | ≤ 35 nM | 50 µM (≈ 21.6 µg/mL) | – |
| O=C(Nc1ccc(C2=C(Cl)CCN(c3nccs3)C2)cn1)c1c(F)cccc1F [Compound 26, N-(5-(4-chloro-1-(thiazol-2-yl)-1,2,5,6-tetrahydropyridin-3-yl)pyridin-2-yl)-2,6-difluorobenzamide] | ≤ 35 nM | 100 µM (≈ 43.3 µg/mL) | – |
| O=C(Nc1ccc(C2=C(Cl)CCN(c3nccs3)C2)cn1)c1ccc(F)cc1F [Compound 27] | 75 to 150 nM | 50 µM (≈ 21.6 µg/mL) | – |
| CC(C)=CC(=O)Nc1ccc(C2=C(C)CCN(c3nnn(C)n3)C2)cn1 [Compound 28, 3-methyl-N-(5-(4-methyl-1-(2-methyl-2H-tetrazol-5-yl)-1,2,5,6-tetrahydropyridin-3-yl)pyridin-2-yl)but-2-enamide] | – | 50 µM (≈ 17.7 µg/mL) | – |
| CC1=C(c2ccc(NC(=O)c3ccccc3F)nc2)CN(c2nnn(C)n2)CC1 [Compound 29, 2-fluoro-N-(5-(4-methyl-1-(2-methyl-2H-tetrazol-5-yl)-1,2,5,6-tetrahydropyridin-3-yl)pyridin-2-yl)benzamide] | 35 to 75 nM | 50 µM (≈ 19.7 µg/mL) | – |
| CC1=C(c2cnc(NC(=O)c3c(F)cccc3F)cn2)CN(c2ncco2)CC1 [Compound 30, 2,6-difluoro-N-(5-(4-methyl-1-(oxazol-2-yl)-1,2,5,6-tetrahydropyridin-3-yl)pyrazin-2-yl)benzamide] | 35 to 75 nM | – | 150 µM (≈ 59.6 µg/mL) |
| CC1=C(c2cnc(NC(=O)c3ccccc3F)cn2)CN(c2nccs2)CC1 [Compound 31, 2-fluoro-N-(5-(4-methyl-1-(thiazol-2-yl)-1,2,5,6-tetrahydropyridin-3-yl)pyrazin-2-yl)benzamide] | 35 to 75 nM | 25 µM (≈ 9.89 µg/mL) | – |
| CC1=C(c2cnc(NC(=O)c3c(F)cncc3F)cn2)CN(c2nccs2)CC1.Cl [Compound 34, 3,5-difluoro-N-(5-(4-methyl-1-(thiazol-2-yl)-1,2,5,6-tetrahydropyridin-3-yl)pyrazin-2-yl)isonicotinamide hydrochloride] | – | 25 µM | – |
| CC1=C(c2cnc(NC(=O)c3c(F)cccc3Cl)cn2)CN(c2nnn(C)n2)CC1 [Compound 35, 2-chloro-6-fluoro-N-(5-(4-methyl-1-(2-methyl-2H-tetrazol-5-yl)-1,2,5,6-tetrahydropyridin-3-yl)pyrazin-2-yl)benzamide] | – | 25 µM (≈ 10.7 µg/mL) | – |
